Measurements from PubChem BioAssay (NCI).
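Growth conditions: 96-well plates. Treatment: test compound, 48 hours, 5 concentrations. Analysis: linear interpolation between bracketing concentrations; unreached endpoints set to highest concentration. TGI: total growth inhibition.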

Columns and labels:
Experiment in all cases: NCI anticancer screen, dose series, 48 h
SK-MEL-2 melanoma = test system: SK-MEL-2 melanoma
CAKI-1 renal = test system: CAKI-1 renal
EKVX NSCLC = test system: EKVX NSCLC
UACC-257 melanoma = test system: UACC-257 melanoma
MALME-3M melanoma = test system: MALME-3M melanoma
IGROV1 ovarian = test system: IGROV1 ovarian
U251 CNS = test system: U251 CNS
KM20L2 colon = test system: KM20L2 colon
HOP-62 NSCLC = test system: HOP-62 NSCLC
SNB-78 CNS = test system: SNB-78 CNS
MOLT-4 leukemia = test system: MOLT-4 leukemia
HCT-116 colon = test system: HCT-116 colon
SN12C renal = test system: SN12C renal
NCI-H460 lung = test system: NCI-H460 lung
DMS 114 small cell lung = test system: DMS 114 small cell lung
HCC-2998 colon = test system: HCC-2998 colon
NCI-H226 lung = test system: NCI-H226 lung
SK-OV-3 ovarian = test system: SK-OV-3 ovarian
M19-MEL melanoma = test system: M19-MEL melanoma
KM12 colon = test system: KM12 colon
HCT-15 colon = test system: HCT-15 colon
OVCAR-4 ovarian = test system: OVCAR-4 ovarian
A549 NSCLC = test system: A549 NSCLC
SK-MEL-28 melanoma = test system: SK-MEL-28 melanoma
OVCAR-8 ovarian = test system: OVCAR-8 ovarian
OVCAR-3 ovarian = test system: OVCAR-3 ovarian
ACHN renal = test system: ACHN renal
CCRF-CEM leukemia = test system: CCRF-CEM leukemia
SW-620 colon = test system: SW-620 colon
NCI-H23 lung = test system: NCI-H23 lung
SF-295 CNS = test system: SF-295 CNS
HL-60(TB) leukemia = test system: HL-60(TB) leukemia
UACC-62 melanoma = test system: UACC-62 melanoma
COLO 205 colon = test system: COLO 205 colon
LXFL 529 NSCLC = test system: LXFL 529 NSCLC
LOX IMVI melanoma = test system: LOX IMVI melanoma
OVCAR-5 ovarian = test system: OVCAR-5 ovarian
DMS 273 small cell lung = test system: DMS 273 small cell lung
786-0 renal = test system: 786-0 renal
M14 melanoma = test system: M14 melanoma
NCI-H522 lung = test system: NCI-H522 lung
UO-31 renal = test system: UO-31 renal
A498 renal = test system: A498 renal
SNB-75 CNS = test system: SNB-75 CNS
RPMI-8226 leukemia = test system: RPMI-8226 leukemia
SNB-19 CNS = test system: SNB-19 CNS
SF-268 CNS = test system: SF-268 CNS
SK-MEL-5 melanoma = test system: SK-MEL-5 melanoma
TK-10 renal = test system: TK-10 renal
K-562 leukemia = test system: K-562 leukemia
HOP-18 NSCLC = test system: HOP-18 NSCLC
HT29 colon = test system: HT29 colon
DLD-1 colon = test system: DLD-1 colon

Measured: TGI

C1=CC=C2NCCSCCNC3=CC=CC=CC3=NCCSCCN=C2C=C1
> 100 µM: all assays above
